Experiments:
white adipocytes = test: Adipocyte size-reducing effects of HG; type: in vivo, mice; conditions: epididymal fat, HG administered; FIG. 16
Method: To analyze in vivo anti-obesity efficacy of HG, animal models of obesity were prepared. 8-week-old male C57BL/6N mice (SPF grade, 20±2 g, Orient Bio) were set into 7 groups as follows, and 10 mice per each group were tested: as normal control groups, normal mice (con) with no high fat diet and no administration, and obese mice (HFD) with induction of obesity by 30% high fat diet and no administration, and as a positive control group, obese mice with oral administration of orlistat which is an anti-obesity agent. As experimental groups, obese mice with oral administration of HG of 20 mg/kg, 40 mg/kg, or 80 mg/kg, and normal mice with oral administration of HG of 80 mg/kg were used. Mice were administered with HG at the same time with induction of obesity, and HG was administered for 5 days per week for 12 weeks. A dark: light cycle was maintained at intervals of 12 hours: 12 hours, and mice were allowed to free access to water.
For histological analysis, the epididymal fat tissues of mice were fixed in 4% paraformalin. Dehydration was performed several times through graded alcohol series and washing, and each tissue was embedded in paraffin. Each tissue section was cut at a thickness of 4 μm, and stained with hematoxylin and eosin. In order to examine the size of white adipocytes, the adipocyte area of each section was measured with cellSence software (Olympus Co., USA). […]

forkhead box 01 (FoxO1) = test: Western blotting of p-FOXO1 in adipocytes; type: cell-based; conditions: 3T3-L1 differentiated for 10 days, hydrangenol 2.5 ug/ml, 24 hours, FIG. 3
Method: The mechanism of reducing triglyceride in adipocytes was examined for the hydrangenol-containing hydrangea (Hydrangea serrata) and hydrangenol. A pre-adipocyte 3T3-L1 was differentiated for 10 days and treated with hydrangea (Hydrangea serrata) (25 ug/ml) and hydrangenol (2.5 ug/ml) for 24 hours, respectively. Thereafter, the cells were lysed using a modified LIPA buffer, and each 20 ug thereof was used for analysis. p-mTOR(ab109268, Abcam), p-FOXO1(9461S, Cell Signaling), PPARγ(sc-7273, Santa Cruz), and β-actin(A5316, Sigma) primary antibodies were used for analysis, respectively.

[1] = Body weight- and fat-reducing effects of WHS in obese mice; type: in vivo; conditions: obese mice (HFD)
Method: To analyze in vivo anti-obesity efficacy of WHS, animal models of obesity were first prepared. 8-week-old male C57BL/6N mice (specific-pathogen-free (SPF) grade, 20±2 g, Orient Bio) were set into 7 groups as follows, and 10 mice per each group were tested: as normal control groups, normal mice (con) with no high fat diet and no administration, and obese mice (HFD) with induction of obesity by 30% high fat diet and no administration, and as a positive control group, obese mice with oral administration of orlistat which is an anti-obesity agent. As experimental groups, obese mice with oral administration of WHS of 75 mg/kg, 150 mg/kg, or 300 mg/kg, and normal mice with oral administration of WHS of 300 mg/kg were used. Further, experiments were performed by dividing mice into those which were administered with WHS for 12 weeks at the same time with induction of obesity, and those which were administered with WHS after induction of obesity for 10 weeks. WHS was orally administered for 5 days per week during the administration period. A dark: light cycle was maintained at intervals of 12 hours: 12 hours, and mice were allowed to free access to water. […] In addition, images of a fat distribution and body fat contents of mice of each experimental group were measured by dual-energy X-ray absorptiometry in the last week of the animal test. […]

| SMILES | adipocyte size (white adipocytes) | phosphorylation of forkhead box 01 (FoxO1) (forkhead box 01 (FoxO1)) | changes in the body weight ([1]; oral administration at the same time with induction of obesity (12 weeks) or after induction of obesity (10 weeks), FIGS. 4 and 5) | body fat (dual-energy X-ray absorptiometry, fat weight) ([1]; oral administration at the same time with or after induction of obesity, FIGS. 6, 7, 8, and 9) |
| --- | --- | --- | --- | --- |
| O=C1OC(c2ccc(O)cc2)Cc2cccc(O)c21 (stereo not shown) [HG, 8-hydroxy-3-(4-hydroxyphenyl)-3,4-dihydroisochromen-1-one] | reduced | increase | – | – |
| CCCCCCCCCCC[C@@H](C[C@@H]1OC(=O)[C@H]1CCCCCC)OC(=O)[C@H](CC(C)C)NC=O [Orlistat, orlistat] | – | – | body weight-reducing effects were observed | decreased |
